Test results reported in ChEMBL document CHEMBL1201862, “PubChem BioAssay data set” (2004).
The source made the active and inactive calls.

What was measured:
[1] = molecular target: FAD-linked sulfhydryl oxidase ALR (Homo sapiens, UniProt P55789); assay: ALR-catalysed DTT oxidation blockers – biochemical, H2O2 detection, luminescence, cherry-pick, dose response (AID 493248)
[2] = Luminescence Cell-Based Dose Confirmation HTS to Identify Activators of 5'UTR Stem-Loop Driven Alpha-Synuclein mRNA Translation in H4 Neuroglioblastoma Cells. [Related pubchem assays: 1829 (Project Summary), 1814 (Primary HTS)]; type: functional
[3] = Luminescence Cell-Based Dose Response HTS to Identify Activators of Luciferase Translation or Activity in H4 […] Cells. [Related pubchem assays: 1829 (Project Summary), 1814 (Primary HTS)]; type: functional
[4] = tested on: H4; assay: Luminescence Cell-Based Dose Response HTS to Identify Activators of 5'UTR Stem-Loop Driven Prion Protein mRNA Translation in H4 Neuroglioblastoma Cells. [Related pubchem assays: 1829 (Project Summary), 1814 (Primary HTS)]; type: functional; details: Homo sapiens
[5] = molecular target: Cytochrome P450 2C9 (Homo sapiens, UniProt P11712)
Cytochrome P450 2C9, sequence (P11712 whole entry): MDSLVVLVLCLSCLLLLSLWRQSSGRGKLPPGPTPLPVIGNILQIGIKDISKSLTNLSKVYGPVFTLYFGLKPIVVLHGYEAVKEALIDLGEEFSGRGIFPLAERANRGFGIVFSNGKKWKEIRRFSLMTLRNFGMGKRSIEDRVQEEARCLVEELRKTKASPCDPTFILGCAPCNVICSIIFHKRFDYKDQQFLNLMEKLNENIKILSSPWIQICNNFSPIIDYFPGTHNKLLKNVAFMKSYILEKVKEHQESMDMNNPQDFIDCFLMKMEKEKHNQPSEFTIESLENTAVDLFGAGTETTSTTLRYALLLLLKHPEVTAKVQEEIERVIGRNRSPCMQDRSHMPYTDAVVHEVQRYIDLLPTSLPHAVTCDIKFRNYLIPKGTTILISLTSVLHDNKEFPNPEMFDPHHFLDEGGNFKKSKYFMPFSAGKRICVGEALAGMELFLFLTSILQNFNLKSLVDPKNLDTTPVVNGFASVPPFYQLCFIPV

[6] = NIH-3T3 fibroblast cytotoxicity, dose response, cytotoxicity control, cell-based, fluorescence, Alamar Blue, secondary assay (AID 2327); type: functional;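 further: NIH-3T3 mouse fibroblasts cultured with fluconazole at 8 µg/mL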
[7] = cells; type: functional, cell-based
[8] = fluconazole-exposed Candida albicans growth modulators – fluorescence, retest, confirmation (AID 2467); type: functional, cell-based
[9] = Trypanosoma cruzi growth suppression in host cells – NIH3T3 host cells, beta-gal luminescence, confirmation (AID 2044); type: functional, cell-based;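 further: intracellular parasites grown in NIH/3T3 mouse fibroblasts as host cells; luminescent beta-galactosidase reporter signal from transgenic T. cruzi replicating inside host cells; inhibitors lower the luminescence signal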
[10] = cells; type: functional, cell-based; remark: listed apart in the source
[11] = NIH3T3 cell viability loss – ATP luminescence, mouse fibroblasts, counter-screen, dose response (AID 2010); type: functional, cell-based;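 further: cells exposed to compound for about 90 hours before reading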
[12] = molecular target: T1, Ubiquitin-conjugating enzyme E2 N (Homo sapiens, UniProt P61088); type: functional;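 further: Dose-response confirmation in a TR-FRET assay detecting UBC13-driven polyubiquitin chain formation, inhibition measured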
T1 sequence (P61088 whole entry): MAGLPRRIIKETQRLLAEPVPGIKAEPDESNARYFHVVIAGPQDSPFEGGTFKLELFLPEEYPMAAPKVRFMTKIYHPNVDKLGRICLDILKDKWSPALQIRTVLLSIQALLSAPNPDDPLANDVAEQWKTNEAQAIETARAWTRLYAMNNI

[13] = molecular target: Nonstructural protein 1 (Influenza A virus, UniProt Q194T2); type: functional, Influenza A virus (A/California/07/2009(H1N1))
Nonstructural protein 1, sequence (Q194T2 whole entry, the tested form may be a part): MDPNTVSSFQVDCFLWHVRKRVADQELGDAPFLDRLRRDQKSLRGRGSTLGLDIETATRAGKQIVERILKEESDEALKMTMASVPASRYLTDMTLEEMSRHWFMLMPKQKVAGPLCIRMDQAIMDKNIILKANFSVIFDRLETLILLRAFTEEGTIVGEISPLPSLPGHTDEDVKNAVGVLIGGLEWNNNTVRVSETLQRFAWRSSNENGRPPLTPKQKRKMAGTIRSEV

[14] = blockers of HIV-1 envelope-mediated cell-cell fusion – cherry-pick, dose response (AID 652057); type: functional, cell-based
[15] = viability loss in CEM21 cells – cell-based, CellTiter-Glo luminescence, cherry-picked, cytotoxicity control for viral fusion inhibitor project, dose response (AID 652042); type: functional;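 further: potency for signal decrease meaning cytotoxicity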
[16] = blockers of HIV-1 ZM109 envelope-driven cell-cell fusion – HeLa effector, CEM target cells, luciferase, cherry-pick, dose response (AID 652058); type: functional, cell-based;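 further: luciferase signal from HIV-1 Env mediated cell-cell fusion of effector and target cells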
[17] = off-target signal loss in HeLa-CEM21 co-culture – HeLa F-luc CTL cells, cherry-picked, counter-screen for HIV-1 Env fusion inhibitor project, dose response (AID 652040); type: functional, cell-based;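 further: potency for signal decrease marking cytotoxic or nonspecific inhibition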
[18] = HIV-1 AD8 envelope cell-cell fusion blockers – cherry-pick, dose response (AID 652062); type: functional, cell-based;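 further: luciferase signal from cell-cell fusion driven by HIV-1 clade B AD8 Env; potency is for inhibitors of fusion seen as a drop in luminescence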
[19] = tested on: Vero; assay: cells; type: functional; details: Chlorocebus sabaeus
[20] = molecular target: T2, Heat shock factor protein 1 (Mus musculus, UniProt P38532); assay: enhancement of HSF1-driven luciferase signal – cell-based, NIH3T3, luminescence, dose retest, confirmation (AID 435004); type: functional;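 further: stress induced by proteasome inhibitor MG132 added 30 min after compound; luciferase reporter driven by HSF1 response element in NIH3T3 cells; actives raise luminescence as potentiators of the MG132 stress response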
T2 sequence (P38532 whole entry): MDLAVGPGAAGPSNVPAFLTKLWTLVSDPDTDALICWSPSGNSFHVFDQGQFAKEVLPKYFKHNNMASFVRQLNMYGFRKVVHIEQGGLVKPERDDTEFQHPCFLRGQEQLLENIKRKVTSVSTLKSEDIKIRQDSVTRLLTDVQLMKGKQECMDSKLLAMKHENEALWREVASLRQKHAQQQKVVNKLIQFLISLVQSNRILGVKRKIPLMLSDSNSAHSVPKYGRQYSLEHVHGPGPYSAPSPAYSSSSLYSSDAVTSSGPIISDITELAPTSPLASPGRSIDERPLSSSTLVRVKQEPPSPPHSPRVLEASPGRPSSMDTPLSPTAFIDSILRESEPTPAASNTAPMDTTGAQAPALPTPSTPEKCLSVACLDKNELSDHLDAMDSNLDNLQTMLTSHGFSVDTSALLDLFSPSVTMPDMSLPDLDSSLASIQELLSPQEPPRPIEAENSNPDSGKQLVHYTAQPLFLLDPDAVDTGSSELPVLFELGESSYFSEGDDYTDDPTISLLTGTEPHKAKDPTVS

[21] = molecular target: T3, Replicative DNA helicase DnaB (Mycobacterium tuberculosis, UniProt P9WMR3); assay: DnaB intein splicing inhibitors, dose response, biochemical, cell-free fluorescence (AID 449749); type: functional
T3 sequence (P9WMR3 whole entry): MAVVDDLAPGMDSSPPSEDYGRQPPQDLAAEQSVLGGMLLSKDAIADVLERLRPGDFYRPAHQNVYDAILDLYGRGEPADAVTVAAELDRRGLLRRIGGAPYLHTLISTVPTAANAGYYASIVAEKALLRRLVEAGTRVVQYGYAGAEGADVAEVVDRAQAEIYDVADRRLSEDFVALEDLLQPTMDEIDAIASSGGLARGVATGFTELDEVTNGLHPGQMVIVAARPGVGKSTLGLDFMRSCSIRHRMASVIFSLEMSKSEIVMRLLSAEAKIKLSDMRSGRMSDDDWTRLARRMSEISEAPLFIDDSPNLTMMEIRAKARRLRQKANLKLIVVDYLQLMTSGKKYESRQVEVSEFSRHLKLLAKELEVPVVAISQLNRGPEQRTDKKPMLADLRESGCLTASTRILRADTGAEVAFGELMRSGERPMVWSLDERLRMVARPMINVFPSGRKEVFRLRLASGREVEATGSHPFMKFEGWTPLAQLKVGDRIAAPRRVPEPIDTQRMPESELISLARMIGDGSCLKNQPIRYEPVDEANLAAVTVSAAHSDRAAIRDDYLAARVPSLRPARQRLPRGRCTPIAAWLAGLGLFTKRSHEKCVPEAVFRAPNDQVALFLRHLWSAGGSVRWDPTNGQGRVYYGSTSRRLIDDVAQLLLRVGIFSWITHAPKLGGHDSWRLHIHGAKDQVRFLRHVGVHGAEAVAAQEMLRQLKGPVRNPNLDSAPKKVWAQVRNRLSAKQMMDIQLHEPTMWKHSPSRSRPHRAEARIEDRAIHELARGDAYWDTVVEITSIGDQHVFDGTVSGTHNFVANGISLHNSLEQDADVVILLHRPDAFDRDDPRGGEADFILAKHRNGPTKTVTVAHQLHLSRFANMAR

[22] = molecular target: T4, Protein RecA (Mycobacterium tuberculosis, UniProt P9WHJ3); assay: Fluorescence Cell-Free Homogeneous Dose Retest to Identify Inhibitors of RecA-Intein Splicing Activity. [Related pubchem assays (depositor defined):AID2097, AID2223, AID489010, AID492950]; type: functional
T4 sequence (P9WHJ3 whole entry): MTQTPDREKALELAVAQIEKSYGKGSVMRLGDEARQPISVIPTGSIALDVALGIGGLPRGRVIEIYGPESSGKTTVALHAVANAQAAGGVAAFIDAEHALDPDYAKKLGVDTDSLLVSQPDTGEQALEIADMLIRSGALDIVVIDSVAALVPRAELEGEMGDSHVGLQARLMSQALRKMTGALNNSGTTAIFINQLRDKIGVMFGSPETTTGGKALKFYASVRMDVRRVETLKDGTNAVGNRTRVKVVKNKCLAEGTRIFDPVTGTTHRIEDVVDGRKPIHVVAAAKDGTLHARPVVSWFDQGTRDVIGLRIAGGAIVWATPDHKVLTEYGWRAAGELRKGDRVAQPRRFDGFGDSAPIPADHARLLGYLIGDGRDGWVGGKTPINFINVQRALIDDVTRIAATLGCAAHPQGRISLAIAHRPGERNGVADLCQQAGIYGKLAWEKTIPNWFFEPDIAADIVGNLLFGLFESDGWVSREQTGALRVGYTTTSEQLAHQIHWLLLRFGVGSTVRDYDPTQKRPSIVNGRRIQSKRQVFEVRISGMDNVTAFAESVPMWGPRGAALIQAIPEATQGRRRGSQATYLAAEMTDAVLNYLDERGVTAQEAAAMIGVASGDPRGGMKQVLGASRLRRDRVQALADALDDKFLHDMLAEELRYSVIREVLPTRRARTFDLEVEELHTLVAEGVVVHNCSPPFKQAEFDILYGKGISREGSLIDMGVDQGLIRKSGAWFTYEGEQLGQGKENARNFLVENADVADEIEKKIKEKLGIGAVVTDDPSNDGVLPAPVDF

FAD-linked sulfhydryl oxidase ALR, sequence (P55789 whole entry): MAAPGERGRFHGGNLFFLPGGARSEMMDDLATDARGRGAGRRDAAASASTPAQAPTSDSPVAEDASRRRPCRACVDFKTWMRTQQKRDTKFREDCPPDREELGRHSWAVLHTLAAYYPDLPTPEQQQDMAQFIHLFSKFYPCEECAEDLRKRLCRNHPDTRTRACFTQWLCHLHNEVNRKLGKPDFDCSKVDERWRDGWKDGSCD

Cc1nc(C(=O)N2CCCC(Nc3ccc(C)c(C)c3)C2)cs1 (stereo not drawn)
AC50 [1]: 0.479 µM (active)

CC(C)(C)NC(=O)C(c1ccncc1)N(Cc1ccco1)C(=O)c1ccc(-c2ccccc2)[nH]1 (stereo not drawn)
EC50 [2]: 8.7 µM (active) | EC50 [3]: > 30 µM (not active) | EC50 [4]: 15.2 µM (active)

O=C(/C=C/c1ccccc1Cl)c1ccc[nH]1
EC50 [2]: 44.6 µM (active) | EC50 [3]: 24.3 µM (active) | EC50 [4]: 38.9 µM (active)

COc1ccccc1NC(=O)c1nn(-c2cccc(C(F)(F)F)c2)ccc1=O
AC50 [5]: inconclusive

Oc1ccc(CN2CCN(Cc3ccccc3)CC2)c2cccnc12
EC50 [6]: > 160 µM (inconclusive) | EC50 [7]: > 350 µM (not active) | EC50 [8]: > 38 µM (not active) | EC50 [9]: 2.03 µM (active) | EC50 [10]: > 350 µM (not active) | EC50 [11]: > 60 µM (not active) | IC50 [12]: > 20 µM (inactive) | IC50 [13]: 11.2 µM (active)

O=C(Nc1cc(N2CCCCC2)ncn1)c1ccc(F)cc1
EC50 [2]: > 120 µM (not active) | EC50 [3]: 17.3 µM (active) | EC50 [4]: 14.1 µM (active)

CCC1(C)NC(=O)N(CC(=O)N2CCC(Cc3ccccc3)CC2)C1=O (stereo not drawn)
IC50 [12]: > 20 µM (inactive)

CCc1ccc(CN2CCN(C(=O)c3cccc(OC)c3OC)CC2)cc1
AC50 [14]: 1.66 µM (active) | AC50 [15]: 67.5 µM (active) | AC50 [16]: 2.01 µM (active) | AC50 [17]: 26.2 µM (active) | AC50 [18]: 11.8 µM (active)

Cc1nc(Cl)sc1C(=O)Nc1cc(F)cc(F)c1
CC50 [19]: > 25 µM (active)

CC(=O)Nc1ccc2c(c1)nc1n2CCSC1
AC50 [1]: 0.34 µM (active)

Cc1ccc(S(=O)(=O)c2c(N)n(CCC(C)C)c3nc4ccccc4nc23)cc1
EC50 [20]: > 260 µM (inactive) | AC50 [21]: > 380 µM (inactive) | EC50 [22]: 3.98 µM (active) | AC50 [14]: 9.53 µM (active) | AC50 [15]: 22.7 µM (active) | AC50 [16]: 24.9 µM (active) | AC50 [17]: 18.6 µM (active) | AC50 [18]: 35.4 µM (active)

CSc1nc(O)c(Nc2cccc(Cl)c2)c(O)n1
AC50 [1]: 1.14 µM (active) | AC50 [21]: 64.9 µM (active) | EC50 [22]: 1.92 µM (active)
